Source: ChEMBL document CHEMBL5500364, “Design, synthesis, and biological evaluation of some 2-(3-oxo-5,6-diphenyl-1,2,4-triazin-2(3H)-yl)-N-phenylacetamide hybrids as MTDLs for Alzheimer's disease therapy” (Eur J Med Chem, 2024)
The source made the active and inactive calls. The rule behind the calls is not given here.

Key:
[1] = Toxicity in wildtype Oregon R-positive Drosophila assessed as reduction in eclosion at 100 to 200 uM pretreated for 5 days and measured for 15 days; settings: 480 h, dose 100-200 µM, time 20 day
Drosophila = test: Neuroprotective activity in ey-GAL4>UAS-amyloid beta (1 to 42) induced cellular toxicity in Oregon R-positive Drosophila model assessed as rescue in eye phenotype at 10 uM by Stereo zoom microscopic imaging analysis relative to control; type: functional
Acetylcholinesterase [2] = target: T1, Acetylcholinesterase (Homo sapiens, UniProt P22303); test: Inhibition of human erythrocyte AChE using acetylthiocholine iodide as substrate preincubated for 30 mins followed by substrate addition by DTNB based Ellman's colorimetric method
T1 sequence (P22303 whole entry, the tested form may be a part): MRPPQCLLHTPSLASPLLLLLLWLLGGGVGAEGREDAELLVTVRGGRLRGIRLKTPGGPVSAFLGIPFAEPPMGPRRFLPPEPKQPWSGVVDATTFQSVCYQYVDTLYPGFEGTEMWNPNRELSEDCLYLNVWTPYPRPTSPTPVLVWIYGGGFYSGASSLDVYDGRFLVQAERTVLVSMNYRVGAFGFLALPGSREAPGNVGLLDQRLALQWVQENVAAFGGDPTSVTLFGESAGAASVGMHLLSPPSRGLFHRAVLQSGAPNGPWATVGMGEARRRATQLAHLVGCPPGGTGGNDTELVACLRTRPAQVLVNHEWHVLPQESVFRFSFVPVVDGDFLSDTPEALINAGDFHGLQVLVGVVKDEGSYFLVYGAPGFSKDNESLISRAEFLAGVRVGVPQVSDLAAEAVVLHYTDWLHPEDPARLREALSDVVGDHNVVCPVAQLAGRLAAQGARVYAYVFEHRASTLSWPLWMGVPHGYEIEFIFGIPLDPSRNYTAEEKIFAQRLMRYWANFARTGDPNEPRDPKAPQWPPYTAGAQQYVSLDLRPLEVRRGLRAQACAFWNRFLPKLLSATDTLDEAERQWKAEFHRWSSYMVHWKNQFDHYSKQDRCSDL

Rattus norvegicus [3] = test: Reversal of amyloid beta (1 to 42 residues) induced cognitive impairment in Wistar rat assessed as reduction in escape latency time at 10 mg/kg, po pretreated with amyloid beta for 7 days followed by compound administration for 9 days and measured after 5 days by Morris water maze test; type: functional, organism-based; settings: time 14.0 day
[4] = target: Amyloid-beta precursor protein (Homo sapiens) (UniProt P05067); test: Inhibition of amyloid beta (1 to 42) (unknown origin) aggregation assessed as maximum peak height of aggregates incubated for 48 hrs by AFM analysis
Chain of Amyloid-beta precursor protein (Homo sapiens) (P05067 whole entry): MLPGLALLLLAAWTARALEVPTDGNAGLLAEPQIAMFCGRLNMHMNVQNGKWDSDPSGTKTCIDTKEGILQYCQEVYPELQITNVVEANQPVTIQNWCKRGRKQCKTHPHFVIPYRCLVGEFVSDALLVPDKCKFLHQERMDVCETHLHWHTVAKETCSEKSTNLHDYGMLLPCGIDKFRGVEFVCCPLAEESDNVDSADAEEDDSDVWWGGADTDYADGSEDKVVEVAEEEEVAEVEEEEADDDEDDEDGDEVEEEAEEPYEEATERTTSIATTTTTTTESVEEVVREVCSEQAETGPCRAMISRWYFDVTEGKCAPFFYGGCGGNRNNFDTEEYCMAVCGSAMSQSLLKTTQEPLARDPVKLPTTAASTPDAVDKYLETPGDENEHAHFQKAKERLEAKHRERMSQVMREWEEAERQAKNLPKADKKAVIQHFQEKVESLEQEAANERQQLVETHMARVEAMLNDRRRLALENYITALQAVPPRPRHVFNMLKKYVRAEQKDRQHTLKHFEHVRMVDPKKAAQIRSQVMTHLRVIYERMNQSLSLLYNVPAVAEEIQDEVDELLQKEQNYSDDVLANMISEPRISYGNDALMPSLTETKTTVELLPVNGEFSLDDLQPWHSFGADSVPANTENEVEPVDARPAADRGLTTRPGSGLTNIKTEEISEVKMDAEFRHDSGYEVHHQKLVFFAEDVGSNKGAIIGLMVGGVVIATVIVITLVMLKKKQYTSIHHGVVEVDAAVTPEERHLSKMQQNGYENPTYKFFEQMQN

Rattus norvegicus [5] = test: Reduction in AChE level in scopolamine-induced male Wistar rat brain hippocampus preadministered with compound orally for 30 mins starting from 7 th day trail followed by scopolamine administration and measured after 5 mins by Ellman's method; type: functional, tissue-based; settings: dose 2.5-10 mg/kg, route po, time 35.0 min
[6] = Permeability of compound in PBS at pH 7.4 incubated for 18 hrs by PAMPA-BBB assay
[7] = target: Amyloid-beta precursor protein (Homo sapiens) (UniProt P05067); test: Inhibition of amyloid beta (1 to 42) (unknown origin) aggregation assessed as reduction in fluorescence intensity at 50 uM incubated for 48 hrs by confocal microscopic analysis
[8] = Acute toxicity in Wistar rat assessed as toxicity signs at 500 to 1000 mg/kg, po administered for 14 days; type: organism-based; settings: in vivo, 336 h, dose 500-1000 mg/kg, time 14 day
[9] = Acute toxicity in Wistar rat assessed as effect on central vein appearance in liver at 500 to 1000 mg/kg, po administered for 14 days by histopathological analysis; type: organism-based; settings: in vivo, 336 h, dose 500-1000 mg/kg, time 14 day
[10] = target: Amyloid-beta precursor protein (Homo sapiens) (UniProt P05067); test: Inhibition of amyloid beta (1 to 42) (unknown origin) aggregation assessed as reduction in amyloid-beta aggregates at 50 uM incubated for 48 hrs by TEM analysis
[11] = Toxicity in wildtype Oregon R-positive Drosophila assessed as cell viability in gut at 5 uM by MTT assay relative to control; type: tissue-based; settings: read-out: Activity
[12] = Acute toxicity in Wistar rat assessed as effect on lung appearance at 500 to 1000 mg/kg, po administered for 14 days by histopathological analysis; type: organism-based; settings: in vivo, 336 h, dose 500-1000 mg/kg, time 14 day
Rattus norvegicus [13] = test: Reversal of amyloid beta (1 to 42 residues) induced cognitive impairment in Wistar rat assessed as reduction in neural dispersion at DG region in hippocampus at 2.5 to 10 mg/kg, po pretreated with amyloid beta for 7 days followed by compound administration for 9 days and measured after 5 days by Nissl's staining based analysis; type: functional, organism-based; settings: dose 2.5-10 mg/kg, time 14.0 day
SH-SY5Y = test: Neuroprotective activity against amyloid-beta(1 to 42) induced oxidative stress in differentiated human SH-SY5Y cells assessed as increase in cell viability at 40 uM preincubated with amyloid-beta (1 to 42 ) for 24 hrs followed by compound addition and measured after 48 hrs by MTT assay relative to control; type: functional
[14] = Acute toxicity in Wistar rat assessed as effect on DCT shape at 500 to 1000 mg/kg, po administered for 14 days by histopathological analysis; type: organism-based; settings: in vivo, 336 h, dose 500-1000 mg/kg, time 14 day
Rattus norvegicus [15] = test: (§1) Reversal of amyloid beta (1 to 42 residues) induced cognitive impairment in Wistar rat assessed as decrease in amyloid level in DG region of hippocampus at 10 mg/kg, po pretreated with amyloid beta for 7 days followed by compound administration for 9 days and measured after 5 days by immuno histochemical analysis; type: functional, organism-based; settings: time 14.0 day
[16] = Acute toxicity in Wistar rat assessed as effect on glomerulus shape at 500 to 1000 mg/kg, po administered for 14 days by histopathological analysis; type: organism-based; settings: in vivo, 336 h, dose 500-1000 mg/kg, time 14 day
[17] = Acute toxicity in Wistar rat assessed as effect on kidney appearance at 500 to 1000 mg/kg, po administered for 14 days by histopathological analysis; type: organism-based; settings: in vivo, 336 h, dose 500-1000 mg/kg, time 14 day
Rattus norvegicus [18] = test: as §1, with “in BACE-1” for “in amyloid”, “in CA3” for “in DG”; type: functional, organism-based; settings: time 14.0 day
Rattus norvegicus [19] = test: Upregulation of ACh level in scopolamine-induced male Wistar rat brain hippocampus preadministered with compound orally for 30 mins starting from 7 th day trail followed by scopolamine administration and measured after 5 mins by GENELISA; type: functional, tissue-based; settings: dose 2.5-10 mg/kg, route po, time 35.0 min
Rattus norvegicus [20] = test: as §1, with “CA1” for “DG”; type: functional, organism-based; settings: time 14.0 day
[21] = Acute toxicity in Wistar rat assessed as effect on PCT shape at 500 to 1000 mg/kg, po administered for 14 days by histopathological analysis; type: organism-based; settings: in vivo, 336 h, dose 500-1000 mg/kg, time 14 day
[22] = MRT in male Wistar rat at 10 mg/kg, po measured after 72 hrs by HPLC analysis; type: ADME, organism-based; settings: in vivo
Beta-secretase 1 = Beta-secretase 1 (Homo sapiens, UniProt P56817); test: Inhibition of human BACE-1 using (7-Methoxycoumarin-4-acetyl-[Asn670, Leu671]-Amyloid beta/A4 precursor protein 770 fragments 667-676- (2, 4-dinitrophenyl) Lys-Arg-Arg amide trifluoroacetate salt as substrate incubated for 2 hrs by FRET-based analysis
Chain of Beta-secretase 1 (P56817 whole entry, the tested form may be a part): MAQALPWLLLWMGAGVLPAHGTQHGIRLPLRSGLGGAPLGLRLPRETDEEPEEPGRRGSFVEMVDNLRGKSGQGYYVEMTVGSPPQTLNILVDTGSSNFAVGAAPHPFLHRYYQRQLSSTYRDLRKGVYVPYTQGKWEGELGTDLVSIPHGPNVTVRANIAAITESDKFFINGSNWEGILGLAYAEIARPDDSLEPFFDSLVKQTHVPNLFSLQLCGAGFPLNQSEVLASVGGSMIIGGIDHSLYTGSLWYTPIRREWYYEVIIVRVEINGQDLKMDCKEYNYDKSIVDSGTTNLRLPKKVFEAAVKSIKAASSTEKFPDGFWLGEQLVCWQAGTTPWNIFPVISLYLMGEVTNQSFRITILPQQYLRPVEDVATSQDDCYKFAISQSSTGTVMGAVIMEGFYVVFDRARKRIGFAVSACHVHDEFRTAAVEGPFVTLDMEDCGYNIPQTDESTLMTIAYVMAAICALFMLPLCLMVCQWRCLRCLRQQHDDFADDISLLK

Hippocampus = test: Reversal of scopolamine-induced oxidative stress in male Wistar rat brain hippocampus assessed as increase in GSH level preadministered orally with compound for 30 mins starting from 7 th day trail followed by scopolamine administration and measured after 5 mins; type: functional, tissue-based; settings: dose 2.5-10 mg/kg, route po, time 35.0 min
[23] = target: Amyloid-beta precursor protein (Homo sapiens) (UniProt P05067); test: Inhibition of human AchE-induced amyloid beta (1 to 42) (unknown origin) aggregation at 5 to 20 uM incubated for 48 hrs by Thioflavin T fluorescence assay relative to control; settings: dose 5-20 µM
Cholinesterase = Cholinesterase (Homo sapiens, UniProt P06276); test: Inhibition of human BChE using butyrylthiocholine iodide as substrate preincubated for 30 mins followed by substrate addition by DTNB based Ellman's colorimetric method
Chain of Cholinesterase (P06276 whole entry): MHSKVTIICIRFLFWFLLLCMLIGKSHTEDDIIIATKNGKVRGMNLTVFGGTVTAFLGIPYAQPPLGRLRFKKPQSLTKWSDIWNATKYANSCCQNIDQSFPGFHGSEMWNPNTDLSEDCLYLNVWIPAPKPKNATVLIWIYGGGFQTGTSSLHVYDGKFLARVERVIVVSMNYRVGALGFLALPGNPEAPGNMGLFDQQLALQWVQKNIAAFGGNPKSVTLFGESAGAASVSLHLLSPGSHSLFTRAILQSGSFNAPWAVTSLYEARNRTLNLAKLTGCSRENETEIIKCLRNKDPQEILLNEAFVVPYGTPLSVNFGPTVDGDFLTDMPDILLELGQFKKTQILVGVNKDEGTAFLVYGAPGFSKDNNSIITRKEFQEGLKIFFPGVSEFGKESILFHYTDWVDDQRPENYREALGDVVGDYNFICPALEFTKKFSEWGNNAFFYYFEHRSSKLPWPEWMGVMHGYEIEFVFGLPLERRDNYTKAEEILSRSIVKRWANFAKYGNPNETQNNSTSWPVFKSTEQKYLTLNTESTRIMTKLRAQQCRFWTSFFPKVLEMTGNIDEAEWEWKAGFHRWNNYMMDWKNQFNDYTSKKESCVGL

[24] = Tmax in male Wistar rat at 10 mg/kg, po measured after 72 hrs by HPLC analysis; type: ADME, organism-based; settings: in vivo
Acetylcholinesterase [25] = target: T1, Acetylcholinesterase; test: Mixed type non-competitive inhibition of human erythrocyte AChE using acetylthiocholine iodide as substrate assessed as decrease in Vmax with increase in Km at 0.25 to 0.75 uM by Lineweaver-burk plot analysis; settings: dose 0.25-0.75 µM
Rattus norvegicus [26] = test: Reversal of amyloid beta (1 to 42 residues) induced cognitive impairment in Wistar rat assessed as reduction in escape latency time at 10 mg/kg, po pretreated with amyloid beta for 7 days followed by compound administration for 9 days and measured after 1 days by Morris water maze test; type: functional, organism-based; settings: time 10.0 day
[27] = Half-life in male Wistar rat at 10 mg/kg, po measured after 72 hrs by HPLC analysis; type: ADME, organism-based; settings: in vivo
[28] = AUC (0 to 8 hrs) in male Wistar rat at 10 mg/kg, po measured after 72 hrs by HPLC analysis; type: ADME, organism-based; settings: in vivo
[29] = Acute toxicity in Wistar rat assessed as body weight loss at 500 to 1000 mg/kg, po measured for 2 to 3 days relative to control; type: organism-based; settings: in vivo, dose lower 500 mg/kg, time lower 2 day, dose upper 1000 mg/kg, time upper 3 day

With `COc1cc(NC(=O)Cn2nc(-c3ccccc3)c(-c3ccccc3)nc2=O)cc(OC)c1` as the compound, how does the Activity [1] read?
The Activity was “Toxic”.

What about the Activity (Drosophila) of the same compound?
The Activity was 21%.

What about the IC50 (Acetylcholinesterase [2]) of the same compound?
Its IC50 is 486 nM.

What about the Activity (Rattus norvegicus [3]) of the same compound?
Its Activity is “Active”.

What about the Activity [4] of the same compound?
The Activity was 253 nm.

What about the Activity (Rattus norvegicus [5]) of the same compound?
The Activity was “Dose-Dependent Effect”.

And the Papp at 18 h [6]?
Its Papp at 18 h is 5.64 ×10⁻⁶ cm/s.

What about the inhibition [7] of the same compound?
The inhibition was “Active”.

And the Activity [8]?
The Activity was “Non-Toxic”.

What about the Activity [9] of the same compound?
Its Activity is “Non-Toxic”.

What about the inhibition [10] of the same compound?
Its inhibition is “Active”.

What about the viability at 5 µM [11] of the same compound?
The viability at 5 µM was 97%.

And the Activity [12]?
Its Activity is “Non-Toxic”.

What about the Activity (Rattus norvegicus [13]) of the same compound?
Its Activity is “Active”.

And the Activity (SH-SY5Y)?
Its Activity is 72%.

And the Activity [14]?
Its Activity is “Non-Toxic”.

What about the Activity (Rattus norvegicus [15]) of the same compound?
The Activity was “Active”.

And the Activity [16]?
Its Activity is “Non-Toxic”.

What about the Activity [17] of the same compound?
Its Activity is “Non-Toxic”.

What about the Activity (Rattus norvegicus [18]) of the same compound?
Its Activity is “Active”.

And the Activity (Rattus norvegicus [19])?
The Activity was “Dose-Dependent Effect”.

What about the Activity (Rattus norvegicus [20]) of the same compound?
The Activity was “Active”.

What about the Activity [21] of the same compound?
The Activity was “Non-Toxic”.

What about the MRT [22] of the same compound?
The MRT was 32 h.

What about the IC50 (Beta-secretase 1) of the same compound?
Its IC50 is 542 nM.

What about the Activity (Hippocampus) of the same compound?
The Activity was “Dose-Dependent Effect”.

And the inhibition [23]?
The inhibition was 41.3%.

What about the IC50 (Cholinesterase) of the same compound?
The IC50 was greater than 10000 nM.

What about the Tmax [24] of the same compound?
The Tmax was 9 h.

And the inhibition (Acetylcholinesterase [25])?
The inhibition was “Active”.

What about the Activity (Rattus norvegicus [26]) of the same compound?
Its Activity is “inactive”.

And the half-life [27]?
The half-life was 41 h.

And the AUC(0-t) at 72 h [28]?
Its AUC(0-t) at 72 h is 1140 ng·h/mL.

What about the Activity [29] of the same compound?
The Activity was 7%.
